The record followed here is patent US7189720B2 (H. Lundbeck A/S, priority 1999, dated 2007).

One may read the Ki as a dissociation constant, usually derived from enzyme kinetics or from competition with a known ligand.

The target in the first assay is T1, human Y5 receptor (Homo sapiens, UniProt Q15761).
T1 construct: expressed in transfected cells; host or cells: mouse fibroblast LM(tk-) cells, e.g. L-hY5-7 (ATCC CRL-11995)
T1 sequence (Q15761 1-445): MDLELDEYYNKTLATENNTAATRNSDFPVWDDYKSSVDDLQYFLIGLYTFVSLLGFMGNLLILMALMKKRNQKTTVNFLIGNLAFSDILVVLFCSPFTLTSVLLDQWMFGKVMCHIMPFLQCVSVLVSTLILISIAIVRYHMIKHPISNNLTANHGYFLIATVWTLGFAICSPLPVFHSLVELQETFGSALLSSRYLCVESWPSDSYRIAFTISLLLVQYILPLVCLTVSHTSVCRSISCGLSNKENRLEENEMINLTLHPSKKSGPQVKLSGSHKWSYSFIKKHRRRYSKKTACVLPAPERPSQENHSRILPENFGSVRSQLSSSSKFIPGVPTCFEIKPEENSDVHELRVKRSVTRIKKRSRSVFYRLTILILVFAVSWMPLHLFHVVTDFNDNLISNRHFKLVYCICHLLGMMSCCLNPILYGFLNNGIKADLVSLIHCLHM
The assay is described as follows: Radioligand binding to membranes, cloned human Y5 receptor. As to conditions: Table 1; read-out: Ki (nM) hNPY-5.
Take `COc1ccc(CCNc2nc(NCC3CCC(CNS(=O)(=O)c4cccc5ccccc45)CC3)nc(NC(C)C)n2)cc1` (stereo not drawn) [Example 16, N1-({4-[({4-(isopropylamino)-6-[(4-methoxyphenethyl)amino]-1,3,5-triazin-2-yl}amino)methyl]cyclohexyl}methyl)-1-naphthalenesulfonamide]: the Ki turned out to be 313 nM. The same measure, in the same setting: with `CC(C)Nc1nc(NCCO)nc(NCC2CCC(CNS(=O)(=O)c3cccc4ccccc34)CC2)n1` (stereo not drawn) [Example 11, N1-[4-([4-[(2-hydroxyethyl)amino]-6-(isopropylamino)-1,3,5-triazin-2-yl]aminomethyl)cyclohexyl]methyl-1-naphthalenesulfonamide] the figure was 35 nM; with `CC(C)Nc1nc(NCC2CCC(CNS(=O)(=O)c3cccc4ccccc34)CC2)nc(N2CCCC2)n1` (stereo not drawn) [Example 20, N1-[4-([4-(isopropylamino)-6-tetrahydro-1H-1-pyrrolyl-1,3,5-triazin-2-yl]aminomethyl)cyclohexyl]methyl-1-naphthalenesulfonamide], 19 nM; with `CCCCNc1nc(NCC2CCC(CNS(=O)(=O)c3cccc4ccccc34)CC2)nc(NC(C)C)n1` (stereo not drawn) [Example 6, N1-[4-([4-(butylamino)-6-(isopropylamino)-1,3,5-triazin-2-yl]aminomethyl)cyclohexyl]methyl-1-naphthalenesulfonamide], 22 nM. Take `CC(C)Nc1nc(NCC2CCC(CNS(=O)(=O)c3cccc4ccccc34)CC2)nc(N2CCN(C(C)C)CC2)n1` (stereo not drawn) [Example 28, N1-{[4-({[4-(isopropylamino)-6-(4-isopropylpiperazino)-1,3,5-triazin-2-yl]amino}methyl)cyclohexyl]methyl}-1-naphthalenesulfonamide]: the Ki turned out to be 22 nM.

For `CCCCCNc1nc(NCC2CCC(CNS(=O)(=O)c3cccc4ccccc34)CC2)nc(NC(C)C)n1` (stereo not drawn) [Example 9, N1-[4-([4-(isopropylamino)-6-(pentylamino)-1,3,5-triazin-2-yl]aminomethyl)cyclohexyl]methyl-1-naphthalenesulfonamide], the Ki was determined as 6 nM.

Staying with this assay, now noted: Table 2; read-out: Ki (nM) hNPY-5.
Consider `CCNc1nc(NCC)nc(NCC2CCC(CNS(=O)(=O)c3cccnc3)CC2)n1` (stereo not drawn) [Example 34, N3-[4-([4,6-di(ethylamino)-1,3,5-triazin-2-yl]aminomethyl)cyclohexyl]methyl-3-pyridinesulfonamide], for which the Ki is 427 nM. On to `CCNc1nc(NCC)nc(NCC2CCC(CNS(=O)(=O)c3ccccc3C)CC2)n1` (stereo not drawn) [Example 33, N1-[4-([4,6-di(ethylamino)-1,3,5-triazin-2-yl]aminomethyl)cyclohexyl]methyl-2-methyl-1-benzenesulfonamide], for which the Ki came out at 22 nM. For the molecule `CCNc1nc(NCC)nc(NCC2CCC(CNS(=O)(=O)c3cn(C)cn3)CC2)n1` (stereo not drawn) [Example 38, N4-[4-([4,6-di(ethylamino)-1,3,5-triazin-2-yl]aminomethyl)cyclohexyl]methyl-1-methyl-1H-4-imidazolesulfonamide], the Ki is 313 nM.

The same assay, now with this note: Table 3; read-out: Ki (nM) hNPY-5.
On to `O=S(=O)(NCC1CCC(CNc2nc(NC3CC3)nc(N3CCCC3)n2)CC1)c1ccc(F)cc1` (stereo not drawn) [Example 52, N1-[4-([4-(cyclopropylamino)-6-tetrahydro-1H-1-pyrrolyl-1,3,5-triazin-2-yl]aminomethyl)cyclohexyl]methyl-4-fluoro-1-benzenesulfonamide], for which the inhibitory constant (Ki) turned out to be 101 nM.

Still in this assay, the particulars now being: Table 5; read-out: Ki, nM hNPY-5.
Consider `CN(C)S(=O)(=O)NC[C@H]1CC[C@H](Nc2nc(-c3nccs3)cs2)CC1` [Example 90, trans-N,N-dimethyl-N′-[(4-[4-(-1,3-thiazol-2-yl)-1,3-thiazol-2-yl]aminocyclohexyl)methyl]sulfamide], for which the inhibition constant Ki is 17.5 nM. Turning to `Cc1nc(-c2csc(N[C@H]3CC[C@H](CNS(=O)(=O)c4ccc(F)cc4)CC3)n2)c(C)s1` [Example 97], the Ki stood at 6.6 nM. As for `COc1ccc(C)cc1S(=O)(=O)NC[C@H]1CC[C@H](Nc2nc(-c3nc(C)sc3C)cs2)CC1` [Example 89, trans-N1-[(4-[4-(2,5-Dimethyl-1,3-thiazol-4-yl)-1,3-thiazol-2-yl]aminocyclohexyl)methyl]-2-methoxy-5-methyl-1-benzenesulfonamide], the Ki is 3.2 nM.

As for `COc1ccc(C)cc1S(=O)(=O)N[C@H]1CC[C@H](CNc2nc(-c3ccccn3)cs2)CC1` [Example 83, trans-2-(4-(2-Methoxy-5-methylphenyl)sulfonylamino)-cyclohexylmethylamino-4-(2-pyridyl)thiazole dihydrogen chloride], the Ki came out at 4 nM.

As for `Cc1noc(C)c1S(=O)(=O)N[C@H]1CC[C@H](CNc2nc(-c3ccccn3)cs2)CC1` [Example 85, trans-2-(4-(3,5-Dimethyl-4-isoxazolyl)sulfonylamino)-cyclohexylmethylamino-4-(2-pyridyl)thiazole dihydrogen chloride], the inhibition constant Ki was found to be 3.8 nM. Same read-out and setting: next, `Cc1nc(-c2csc(NC[C@H]3CC[C@H](N(C=O)C(C)C)CC3)n2)c(C)s1` [Example 102, trans-N-[4-([4-(2,5-Dimethyl-1,3-thiazol-4-yl)-1,3-thiazol-2-yl]aminomethyl)cyclohexyl]-N-isopropylformamide]: 72 nM.

The assay is the same for the next values; noted with them: Table 6; read-out: Ki, nM hNPY-5.
For the molecule `COc1cccc(Br)c1S(=O)(=O)NCCCCCNc1nc2c(s1)CCSc1ccccc1-2` [Example 132, N1-[5-(4,5-Dihydrobenzo[2,3]thiepino[4,5-d][1,3]thiazol-2-ylamino)pentyl]-2-bromo-6-methoxy-1-benzenesulfonamide], the Ki came to 9.7 nM.

For the molecule `COCCN(C=O)[C@H]1CC[C@H](CNc2nc3c(s2)CCSc2ccc(F)cc2-3)CC1` [Example 164, trans-N-(4-[(9-Fluoro-4,5-dihydrobenzo[2,3]thiepino-[4,5-d][1,3]thiazol-2-yl)amino]methylcyclohexyl)-N-(2-methoxyethyl)formamide], the Ki was 13 nM. Consider `CN(C)c1cccc2c(S(=O)(=O)NCCCCCCNc3nc4c(s3)CCSc3ccccc3-4)cccc12` [Example 115, N1-[6-(4,5-Dihydrobenzo[2,3]thiepino[4,5-d][1,3]thiazol-2-ylamino)hexyl]-5-(dimethylamino)-1-naphthalenesulfonamide], for which the Ki was determined as 71 nM. On the same count and under the same terms, with `Cn1cnc(S(=O)(=O)NC[C@H]2CC[C@H](Nc3nc4c(s3)CCSc3ccccc3-4)CC2)c1` [Example 125, N4-{[4-(4,5-Dihydrobenzo[2,3]thiepino[4,5-d][1,3]thiazol-2-ylamino)cyclohexyl]methyl}-1-methyl-1h-4-imidazolesulfonamide] the figure was 33 nM. The same measure, in the same setting: with `Cn1cnc(S(=O)(=O)NCCCCCNc2nc3c(s2)CCSc2ccccc2-3)c1` [Example 111, N4-[5-(4,5-Dihydrobenzo[2,3]thiepino[4,5-d][1,3]thiazol-2-ylamino)pentyl]-1-methyl-1H-4-imidazolesulfonamide] the figure was 17.2 nM; with `O=C(NCCCCCNc1nc2c(s1)CCSc1ccccc1-2)c1cccs1` [Example 141, N2-[5-(4,5-Dihydrobenzo[2,3]thiepino[4,5-d][1,3]thiazol-2-ylamino)pentyl]-2-thiophenecarboxamide], 84 nM. Same read-out and setting: with `O=S(=O)(NCCCCCCNc1nc2c(s1)CCSc1ccccc1-2)c1c(Cl)cccc1Cl` [Example 146, N1-[6-(4,5-Dihydrobenzo[2,3]thiepino[4,5-d][1,3]thiazol-2-ylamino)hexyl]-2,6-dichloro-1-benzenesulfonamide] the figure was 25 nM; with `CN(C)C(=O)NCCCCCNc1nc2c(s1)CCSc1ccccc1-2` [Example 139, N′-[5-(4,5-Dihydrobenzo[2,3]thiepino[4,5-d][1,3]thiazol-2-ylamino)pentyl]-N,N-dimethylurea], 122 nM. For the molecule `O=C(NCCCCCNc1nc2c(s1)CCSc1ccccc1-2)c1ccc2ccccc2c1` [Example 142, N2-[5-(4,5-Dihydrobenzo[2,3]thiepino[4,5-d][1,3]thiazol-2-ylamino)pentyl]-2-naphthamide], the Ki stood at 100 nM.

As to `Cc1cccc(F)c1S(=O)(=O)NCCCCNc1nc2c(s1)CCSc1ccccc1-2` [Example 135, N1-[4-(4,5-dihydrobenzo[2,3]thiepino[4,5-d][1,3]thiazol-2-ylamino)butyl]-2-fluoro-6-methyl-1-benzenesulfonamide], the Ki was 110 nM. As to `CCCS(=O)(=O)NCCCCCCNc1nc2c(s1)CCSc1ccccc1-2` [Example 143, N1-[6-(4,5-Dihydrobenzo[2,3]thiepino[4,5-d][1,3]thiazol-2-ylamino)hexyl]-1-propanesulfonamide], the Ki was found to be 3.6 nM.

Consider `Cc1cccc(F)c1S(=O)(=O)NCCCCCCNc1nc2c(s1)CCSc1ccccc1-2` [Example 149, N1-[6-(4,5-Dihydrobenzo[2,3]thiepino[4,5-d][1,3]thiazol-2-ylamino)hexyl]-2-fluoro-6-methyl-1-benzenesulfonamide], for which the Ki was determined as 4 nM. The same measure, in the same setting: with `O=S(=O)(NCCCCCCNc1nc2c(s1)CCSc1ccccc1-2)c1ccc(F)cc1F` [Example 145, N1-[6-(4,5-Dihydrobenzo[2,3]thiepino[4,5-d][1,3]thiazol-2-ylamino)hexyl]-2,4-difluoro-1-benzenesulfonamide] the figure was 4.1 nM. Still for that read-out and setting: next, `COc1ccc(C)cc1S(=O)(=O)NCCCCCCNc1nc2c(s1)CCSc1ccccc1-2` [Example 113, N1-[6-(4,5-Dihydrobenzo[2,3]thiepino[4,5-d][1,3]thiazol-2-ylamino)hexyl]-2-methoxy-5-methyl-1-benzenesulfonamide]: 5.4 nM.
